Experimental data: patent publication US7495024B2, “Phenylalkyl N-hydroxyureas for combating atherosclerotic plaque” (VIA Pharmaceuticals, Inc., priority 2006, dated 2009)

Tests used:
[1] = test system: patients suffering from Acute Coronary Syndrome (ACS); experiment: Randomized, double blind, placebo-controlled study in patients with Acute Coronary Syndrome: biomarkers and MDCT (Example 3); format: in vivo, human; conditions: 25, 50 or 100 mg per day oral
Experimental: In this study the plaque levels were determined by use of Multidetector (64 slice coronary) Computerized Tomography (MDCT) scan indicative of such plaque in male and female patients suffering from Acute Coronary Syndrome (ACS). The efficacy of this treatment in reducing the effects of cardiovascular disease was determined by the use of biomarkers for this disease. […] At the end of the twenty-four week period the plaque in the patients is analyzed using the Multidetector (64 slice coronary) Computerized Tomography (MDCT) scan. […] Thus, the groups take the following matching capsules at each daily administration of the study medication: • Placebo: two placebo capsules • 25 mg dose: one placebo capsule plus one 25 mg capsule • 50 mg dose: 1 placebo capsule plus one 50 mg capsule • 100 mg dose: two 50 mg capsules The following baseline assessments in each of the patients are made prior to the study: history and complete physical examination; focused physical exam (for signs of bleeding disorder); 12-Lead ECG; measurement of inflammatory biomarkers (LTB4 (ex vivo) measured at trough; LTE4 urine; hsCRP; MPO; MCP1 (CCL2); M-CSF (CSF-1); MIP-2 (Cxcl2); osteopontin (Spp1)); hematology; chemistries; urinalysis; serum pregnancy test for women of childbearing potential; and 64-slice coronary MDCT imaging with contrast. […]

ApoE-deficient mice = experiment: Gross qualitative atherosclerotic lesion analysis of aortas, prevention of plaque formation (Example 1); format: in vivo; conditions: 12-week old ApoE-deficient mice, 28 days
From the text: In Examples 1 and 2 knockout mice deficient in producing the protein Apolipoprotein E [apoE] were used. ApoE-deficient mice are known to spontaneously develop atherosclerotic plaque at 12-16 weeks, which process is accelerated by feeding the mice a high fat diet. Because the atherosclerotic lesions found in these mice are histologically similar to those found in humans, the ApoE-deficient mice are used as a model for assessing the effects of a drug on atherosclerotic plaque in humans. This example was carried out on ApoE-deficient knockout mice who were before their normal development of atherosclerotic plaque which occurs in about 12 weeks to determine the effect of compound X i.e. the compound: (N-[3-[5-[(4-fluorophenyl)methyl]-2-thienyl]-1-methyl-2-propynyl]-N-hydroxyurea) on the prevention of plaque formation. Four week old female ApoE knockout mice were fed a high fat diet (21% anhydrous milk fat and 0.15% cholesterol) for a period of eight weeks. […] The results which are given in FIG. 1 were analyzed by one-way analysis of variance (ANOVA) and Student's unpaired t-test comparing each treatment arm to the appropriate control arm.

SMILES: CC(C#Cc1ccc(Cc2ccc(F)cc2)s1)N(O)C(N)=O (stereo not shown) [compound X, N-[3-[5-[(4-fluorophenyl)methyl]-2-thienyl]-1-methyl-2-propynyl]-N-hydroxyurea]
- levels of inflammatory biomarkers for cardiovascular disease, percentage of patients vs placebo group ([1]; 12 weeks of dosing): decrease in the levels of inflammatory biomarkers
- density and/or plaque volume of coronary noncalcified plaque index lesions by 64-slice MDCT, percentage of patients vs placebo group ([1]; 24 weeks of dosing): a change in the density and/or plaque volume
- extent of plaque in the proximal aorta (ApoE-deficient mice; high fat diet, 1, 10 and 50 mg/kg/day oral once daily, vs vehicle): reductions in the extent of plaque
- reduction of plaque formation in the proximal aorta compared to vehicle (ApoE-deficient mice; 50 mg/kg/day oral, p<0.03): ~40%
